From patent US20250090437A1, “COSMETIC COMPOUNDING AGENT, COSMETIC AND PRODUCTION METHOD THEREOF” (MIYOSHI OIL & FAT CO., LTD., priority 2019, published 2025)

Tests used:
[1] = Water retention property and adherability with respect to healthy hair; parameters: species or system human
Protocol: In the following evaluations, a human black hair produced by Beaulax Co., Ltd was used as a healthy hair. A damaged hair was prepared by repeatedly having the healthy hair permed and bleached three times.
An 80 wt % aqueous solution of each of the compounds B1 to B26 (content in terms of anhydride in the cases of the compounds B1 to B23) was prepared, followed by using a Karl Fischer moisture meter (KF-200 by Mitsubishi Chemical Analytech Co., Ltd.) to confirm that a moisture rate was 20.0 wt %. As a healthy hair, there was used a chemically untreated healthy hair (human black hair by Beaulax Co., Ltd). The moisture rate (pre-test moisture rate A) of the hair was measured by an infrared moisture meter (by Kett Electric Laboratory).
After immersion, the hair was taken out, and KimWipes were then used to wipe off the compound until a change in weight was no longer observed, followed by measuring the weight of the hair (post-test hair weight B). The hair from which the compound had been wiped off was then placed into a thermo-hygrostat set to 40° C. and 35 to 40% RH. A moisture rate after 24 hours (post-test moisture rate B) was then measured, followed by calculating a rate of reduction in moisture with the following formula. Likewise, instead of the 80 wt % aqueous solution, evaluation was also performed in a similar manner using only an ion-exchange water (comparative example B4).
Further, an adhesion rate of the compound adhering to the hair was calculated with the following formula. […]

[2] = Sensory evaluation on healthy hair after using organic ammonium salt; parameters: species or system human; key to When washing: Finger-combing capability: ⊚: Superior; ∘: Favorable; Δ: No change; x: Inferior; settings: healthy hair, 80 wt % aqueous solution
Protocol: (§1) Here, an 80 wt % aqueous solution(s) of each of the compounds B11, B12, B23, B26 and B27 (content in terms of anhydride in the cases of the compounds B11, B12 and B23) were prepared and used as samples. Next, one minute was spent in evenly applying 10.0 g of each sample to a bundle of the healthy hairs weighing about 10 g, using a brush; the bundle of the healthy hairs was then left for 5 min. After leaving it for 5 min, the bundle of the healthy hairs was rinsed with a hot water of 40° C. for 30 sec, and evaluated was a finger-combing capability at the time of performing washing. The hair bundle that had been rinsed was then dried with a towel and further subjected to air drying for a day, followed by evaluating items such as flexibility, finger-combing capability, texture, elasticity/resilience (feeling by bare hands), volume increase (visual evaluation), cohesiveness, moist feeling, surface smoothness, non-stickiness (feeling by bare hands) and gloss (visual evaluation), from the perspective of superiority or inferiority to a test hair bundle(s) uncoated with the sample.

[3] = Sensory evaluation on damaged hair after using organic ammonium salt; parameters: species or system human; settings: damaged hair, 80 wt % aqueous solution
Protocol: as §1, with “damaged” for “healthy”, “as” for “as flexibility, finger-combing capability, texture,”, “hands),” for “hands), volume increase (visual evaluation),”, “cohesiveness,” for “cohesiveness, moist feeling,”, “smoothness” for “smoothness, non-stickiness (feeling by bare hands)”, “non-waviness,” for “gloss (visual evaluation),”

[4] = Affinity to hair (contact angle); settings: 50 wt % aqueous solution; condition B (hair iron, 160° C.)
[5] = Sensory evaluation on healthy hair after using shampoo agent containing organic ammonium salt; parameters: species or system human; settings: shampoo agent containing 3.0% by mass of the compound; treated 10 times
Protocol: (§2) Next, the mixture was cooled to a temperature of 30° C. or lower, and a purified water of an evaporated amount was then added thereto so that the whole hair treatment composition would be 100% by mass, followed by uniformly mixing them so as to obtain a hair treatment composition(s). The pH level of the hair treatment composition was adjusted to pH 6.0 by adding a citric acid or sodium hydroxide.
About 5 g of the healthy hair was taken and dipped into 350 ml of a seven-time dilute aqueous solution of each of the abovementioned hair treatment compositions (shampoo agents) at 35 to 40° C. so as to be washed. The healthy hair was then subjected to a rinsing treatment five times using 500 ml of a warm water of 35 to 40° C., followed by drying the same at 80° C., and then performing air drying at 25° C. Such series of treatment involving hair washing, rinsing and drying was repeated 10 times to then evaluate a cohesiveness of the hair, a moist feeling of the hair, a gloss of the hair, a surface smoothness of the hair and a non-stickiness on the surface of the hair, after performing air drying.

[6] = Sensory evaluation on damaged hair after using shampoo agent containing organic ammonium salt; parameters: species or system human; settings: shampoo agent containing the compound; treated 10 times
Protocol: as §2
The damaged hair was repeatedly treated 10 times in a similar manner as 3-1; evaluated were a cohesiveness of the hair, surface smoothness of the hair and waviness of the hair after performing air drying.

[7] = Sensory evaluation on healthy hair after using conditioner containing organic ammonium salt; parameters: species or system human; settings: conditioner containing 3.0% by mass of the compound
Protocol: Here, 4.5% by mass of a stearyl alcohol (KALCOL 8688 by Kao Corporation), 2.0% by mass of a behenyl alcohol (KALCOL 220-80 by Kao Corporation) and 0.5% by mass of a phenoxyethanol (Hisolve EPH by TOHO Chemical Industry Co., Ltd.) were mixed together and heated to 75° C. to obtain a liquid A. Further, 3.0% by mass of a behentrimonium chloride (CATINAL DC-80 by TOHO Chemical Industry Co., Ltd.), 5.0% by mass of dipropylene glycol and 3.0% by mass of each of the compounds B11, B23, B26, B27 and B28 (content in terms of anhydride in the cases of the compounds B11 and B23) were added together, followed by adding a purified water thereto, and then melting them at 80° C., thus obtaining a liquid B. The liquid B was then gradually added to the liquid A, and stirring was performed at 75° C. for 20 min. Next, the mixture was cooled to a temperature of 40° C. or lower, and a purified water of an evaporated amount was then added thereto so that the whole hair treatment composition would be 100% by mass, followed by uniformly mixing them so as to obtain a hair treatment composition(s).
About 5 g of the healthy hair was dipped into and kept immersed in 150 g of a seven-time dilute aqueous solution of each of the abovementioned hair treatment compositions (conditioners) at 40° C. for 30 min. […] After air drying, a combing capability, cohesiveness and non-stickiness of the hair were evaluated.

[8] = Surface resistance measurement of organic ammonium salt; settings: 0.7 g applied to polyurethane artificial leather; dried, coating in solid state
[9] = Water retention property test 1; assay type: physicochemical; settings: 80 wt % aqueous solution
Protocol: A moisture rate after 24 hours was again measured (post-test moisture rate: B), followed by using the formula below to calculate a rate of reduction in moisture so as to evaluate the water retention property. • Pre-test moisture rate: A (%) • Post-test moisture rate: B (%)

[10] = Water confinement property test (barrier property); assay type: physicochemical; settings: 80 wt % aqueous solution, 0.01 mL/cm^2 on filter paper, 40° C. and 25% RH, 24 hours
Protocol: Next, 20.0 g of an ion-exchange water was put into a 40 mL pierce vial bottle (by AS ONE Corporation.), followed by removing an inner lid (rubber plug) of the pierce vial bottle, placing on the pierce vial bottle the filter paper to which each sample had been applied, and then plugging the bottle with an outer lid.
Further, Wm1, Wm2, Sm1 and Sm2 in the formula below respectively represent the following numerical values.
Wm1: Weight of ion-exchange water in vial before storage (using filter paper to which only ion-exchange water had been applied)
Wm2: Weight of ion-exchange water in vial after 24 hours (using filter paper to which only ion-exchange water had been applied)
Sm1: Weight of ion-exchange water in vial before storage (using filter paper to which sample had been applied)
Sm2: Weight of ion-exchange water in vial after 24 hours (using filter paper to which sample had been applied)

[11] = Stability of ascorbic acid-based compound (coloration); assay type: physicochemical; parameters: key to Appearance (Visual evaluation) Immediately after preparatiom / Appearance (Visual evaluation) After 7 days 50° C. / Appearance (Visual evaluation) After 7 days Room temperature: ⊚: Colorless and transparent; ∘: Light yellow; Δ: Yellow; x: Brown to black; settings: 33 wt % aqueous solution
Protocol: With regard to a 33 wt/% aqueous solution of each of the compounds C46, C49 and C98 to C100 and water, a stability in an aqueous solution condition was visually evaluated. An evaluation method was such that there was prepared a 33 wt % aqueous solution of each of the compounds C46, C49 and C98 to C100, the aqueous solution was then left to stand still at room temperature or in a thermostatic bath of 50° C. for seven days; coloration before and after the still standing was visually confirmed. The evaluation criteria were as follows. • ⊚: Colorless and transparent • ∘: Light yellow • Δ: Yellow • x: Brown to black

Tyrosinase = experiment: Whitening effect: tyrosinase activity inhibition test; assay type: biochemical; settings: compound concentration 500 μg/mL; substrate D, L-DOPA; room temperature for a week
Protocol: With regard to a 50 wt/% aqueous solution of each of the compounds C46, C49 and C101, a whitening effect was confirmed via a tyrosinase activity inhibition test. Tyrosinase (by SIGMA-ALDRICH) was dissolved with a 67 mM phosphate buffer solution (pH 6.8) so that the concentration of the tyrosinase would be 0.2 mg/mL, thereby obtaining an enzyme solution. Further, a substrate solution was prepared by dissolving 3 mg of D, L-DOPA (by Tokyo Chemical Industry Co., Ltd.) into 10 mL of the 67 mM phosphate buffer solution. […] Next, 80 μL of the substrate solution was quickly added to the preincubated solution, and an absorbance (A1) at 475 nm immediately after the addition of the substrate solution was then measured. Further, after leaving this solution to stand still at room temperature for a week, an absorbance (A2) at 475 nm was again measured.
In addition, as a control, there were prepared samples containing an ultrapure water instead of the compounds of the working examples; and in a similar manner as above, there were measured an absorbance (A3) at 475 nm immediately after the addition of the substrate, and an absorbance (A4) at 475 nm after leaving the solution at room temperature for a week.
An inhibition rate was calculated with the following formula.

[12] = Water retention property and adherability with respect to damaged hair; parameters: species or system human; settings: concentration 50 wt % (Table 11)
Protocol: A damaged hair was prepared by the following method.
A damaged hair was produced by performing these perm treatment and bleach treatment three times.

NC(CO)(CO)CO.O=C(O)CO [Compound B12]
Compound adhesion rate ([1]; healthy hair immersed 60 min in 80 wt % aqueous solution): 1.6% | Post-test moisture rate ([1]; healthy hair immersed 60 min in 80 wt % aqueous solution, after 24 hours at 40° C., 35 to 40% RH, pre-test 7.6%): 5.4% | Rate of reduction in moisture ([1]; healthy hair, 80 wt % aqueous solution, 24 hours at 40° C., 35 to 40% RH): 29% | After air drying: Cohesiveness of hair [2]: ◯~Δ | After air drying: Elasticity/Resilience [2]: ◯~Δ | After air drying: Finger-combing capability [2]: ◯~Δ | After air drying: Flexibility [2]: ◯~Δ | After air drying: Gloss of hair [2]: ◯~Δ | After air drying: Moist feeling [2]: ◯~Δ | After air drying: Non-stickiness of hair surface [2]: ◯~Δ | After air drying: Smoothness of hair surface [2]: ◯~Δ | After air drying: Texture [2]: ◯~Δ | After air drying: Volume increase [2]: ◯~Δ | When washing: Finger-combing capability ([2]; versus uncoated hair bundle): ⊚ | After air drying: Cohesiveness of hair [3]: ◯~Δ | After air drying: Elasticity/Resilience [3]: ◯~Δ | After air drying: Smoothness of hair surface [3]: ◯~Δ | After air drying: Suppression of hair waviness [3]: ◯ | When washing: Finger-combing capability [3]: ◯~Δ | Contact angle of water droplet on treated hair [4]: infiltrated the hair

CC(O)C(=O)[O-].[Na+] (centres unmarked) [Compound B28, sodium lactate]
Sensory evaluation of healthy hair after shampoo agent (cohesiveness, moist feeling, gloss, smoothness, non-stickiness) [5]: inferior in general | Sensory evaluation of damaged hair after shampoo agent (cohesiveness, surface smoothness, waviness) [6]: inferior surface smoothness | Combing capability, cohesiveness and non-stickiness of healthy hair after conditioner [7]: poor hair cohesiveness | Surface resistance value [8]: 2×10^8 Ω

NC(CO)(CO)CO.O=C1OC(C(O)CO)C(O)=C1O (centres unmarked) [Compound C49]
Water retention property test 1 Pre-test moisture rate [9]: 20.0% | Water retention property test 1 Post-test moisture rate ([9]; 24 hours at 40° C. and 25% RH): 19.4% | Water retention property test 1 Rate of reduction in moisture ([9]; 24 hours at 40° C. and 25% RH): 3.0% | Water evaporation inhibition rate [10]: 32.19% | Appearance (Visual evaluation) After 7 days 50° C. [11]: Δ | Appearance (Visual evaluation) After 7 days Room temperature [11]: ○ | Appearance (Visual evaluation) Immediately after preparatiom [11]: ⊚ | Coloration of aqueous solution (stability) ([11]; room temperature or 50° C., seven days): significant improvements in coloration | Tyrosinase activity inhibition rate (Tyrosinase): 95.8%

CC(O)C(=O)O (centres unmarked) [lactic acid, reference compound]
Hair adhesion rate ([1]; healthy hair, concentration 50 wt % (Table 11)): 1.1% | Hair adhesion rate [12]: 1.1%
